Assay results reported in the supplement of paper PMC12076712.

Columns and labels:
Assay in all cases: pIC50, kinobeads binding competition
Conditions in all cases: cell material: Jurkat lysate
[1] = target: UniProt O75460
[2] = target: UniProt Q9HCP0
[3] = target: UniProt P28482
[4] = target: IRAK1 (UniProt P51617)
[5] = target: CIT (UniProt O14578)
[6] = target: UniProt Q15418
[7] = target: T1, ITK (UniProt Q08881)
T1 sequence (whole entry): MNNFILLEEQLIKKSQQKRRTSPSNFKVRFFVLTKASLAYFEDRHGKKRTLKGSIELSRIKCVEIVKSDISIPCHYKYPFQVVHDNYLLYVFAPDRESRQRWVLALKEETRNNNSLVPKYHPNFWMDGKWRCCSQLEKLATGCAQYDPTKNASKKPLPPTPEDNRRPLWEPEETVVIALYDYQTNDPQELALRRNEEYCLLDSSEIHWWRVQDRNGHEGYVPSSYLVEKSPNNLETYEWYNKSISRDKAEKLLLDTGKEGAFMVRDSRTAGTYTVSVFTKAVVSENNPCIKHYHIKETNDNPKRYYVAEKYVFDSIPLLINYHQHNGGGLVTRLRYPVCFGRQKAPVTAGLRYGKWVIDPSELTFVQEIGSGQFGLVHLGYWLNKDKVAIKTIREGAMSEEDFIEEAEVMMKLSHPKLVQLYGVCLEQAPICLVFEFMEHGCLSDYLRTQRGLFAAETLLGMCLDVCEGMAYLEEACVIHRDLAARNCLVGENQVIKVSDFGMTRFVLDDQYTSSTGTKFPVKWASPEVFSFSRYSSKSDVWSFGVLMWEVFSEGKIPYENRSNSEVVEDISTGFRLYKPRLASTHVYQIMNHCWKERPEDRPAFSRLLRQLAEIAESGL

[8] = target: T2, EPHB6 (UniProt O15197)
T2 sequence (whole entry): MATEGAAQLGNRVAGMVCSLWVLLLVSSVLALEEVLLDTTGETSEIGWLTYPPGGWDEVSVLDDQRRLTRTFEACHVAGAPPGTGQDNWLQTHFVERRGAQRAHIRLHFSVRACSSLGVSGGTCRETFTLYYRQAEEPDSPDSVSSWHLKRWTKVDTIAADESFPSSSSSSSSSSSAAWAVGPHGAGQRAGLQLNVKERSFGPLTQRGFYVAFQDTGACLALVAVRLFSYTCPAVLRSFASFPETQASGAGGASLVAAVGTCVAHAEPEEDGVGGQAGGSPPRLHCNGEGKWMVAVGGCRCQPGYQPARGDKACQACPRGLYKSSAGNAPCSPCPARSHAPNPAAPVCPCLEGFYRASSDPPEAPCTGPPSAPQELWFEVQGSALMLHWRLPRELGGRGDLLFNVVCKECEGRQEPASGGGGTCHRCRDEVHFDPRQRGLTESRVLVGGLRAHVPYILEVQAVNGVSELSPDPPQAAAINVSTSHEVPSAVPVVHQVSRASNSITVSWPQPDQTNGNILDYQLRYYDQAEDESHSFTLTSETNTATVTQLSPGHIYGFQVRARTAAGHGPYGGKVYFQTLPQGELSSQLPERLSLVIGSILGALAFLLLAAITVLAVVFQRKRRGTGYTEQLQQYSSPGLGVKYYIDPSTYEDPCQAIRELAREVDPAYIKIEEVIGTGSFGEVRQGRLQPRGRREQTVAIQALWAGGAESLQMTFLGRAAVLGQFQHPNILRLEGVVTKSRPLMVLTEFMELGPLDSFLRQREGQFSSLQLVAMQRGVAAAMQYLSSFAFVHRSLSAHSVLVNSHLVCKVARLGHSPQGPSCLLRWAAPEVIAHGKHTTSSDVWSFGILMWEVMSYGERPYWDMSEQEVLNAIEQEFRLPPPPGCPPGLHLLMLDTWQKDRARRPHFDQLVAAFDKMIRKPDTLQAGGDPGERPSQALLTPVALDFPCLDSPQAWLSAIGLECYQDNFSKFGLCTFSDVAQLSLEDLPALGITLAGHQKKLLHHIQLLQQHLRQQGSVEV

[9] = target: T3, UniProt P46734
T3 sequence (whole entry): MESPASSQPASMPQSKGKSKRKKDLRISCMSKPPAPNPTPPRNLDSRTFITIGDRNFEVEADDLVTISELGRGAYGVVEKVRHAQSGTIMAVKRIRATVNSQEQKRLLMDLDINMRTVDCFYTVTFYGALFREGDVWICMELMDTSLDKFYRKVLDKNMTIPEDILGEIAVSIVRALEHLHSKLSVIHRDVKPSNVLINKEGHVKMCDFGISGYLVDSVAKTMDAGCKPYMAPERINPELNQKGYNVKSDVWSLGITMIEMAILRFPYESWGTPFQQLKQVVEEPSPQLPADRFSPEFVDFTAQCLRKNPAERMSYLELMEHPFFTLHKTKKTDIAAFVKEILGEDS

Measured: pIC50

CIT, sequence (O14578 whole entry): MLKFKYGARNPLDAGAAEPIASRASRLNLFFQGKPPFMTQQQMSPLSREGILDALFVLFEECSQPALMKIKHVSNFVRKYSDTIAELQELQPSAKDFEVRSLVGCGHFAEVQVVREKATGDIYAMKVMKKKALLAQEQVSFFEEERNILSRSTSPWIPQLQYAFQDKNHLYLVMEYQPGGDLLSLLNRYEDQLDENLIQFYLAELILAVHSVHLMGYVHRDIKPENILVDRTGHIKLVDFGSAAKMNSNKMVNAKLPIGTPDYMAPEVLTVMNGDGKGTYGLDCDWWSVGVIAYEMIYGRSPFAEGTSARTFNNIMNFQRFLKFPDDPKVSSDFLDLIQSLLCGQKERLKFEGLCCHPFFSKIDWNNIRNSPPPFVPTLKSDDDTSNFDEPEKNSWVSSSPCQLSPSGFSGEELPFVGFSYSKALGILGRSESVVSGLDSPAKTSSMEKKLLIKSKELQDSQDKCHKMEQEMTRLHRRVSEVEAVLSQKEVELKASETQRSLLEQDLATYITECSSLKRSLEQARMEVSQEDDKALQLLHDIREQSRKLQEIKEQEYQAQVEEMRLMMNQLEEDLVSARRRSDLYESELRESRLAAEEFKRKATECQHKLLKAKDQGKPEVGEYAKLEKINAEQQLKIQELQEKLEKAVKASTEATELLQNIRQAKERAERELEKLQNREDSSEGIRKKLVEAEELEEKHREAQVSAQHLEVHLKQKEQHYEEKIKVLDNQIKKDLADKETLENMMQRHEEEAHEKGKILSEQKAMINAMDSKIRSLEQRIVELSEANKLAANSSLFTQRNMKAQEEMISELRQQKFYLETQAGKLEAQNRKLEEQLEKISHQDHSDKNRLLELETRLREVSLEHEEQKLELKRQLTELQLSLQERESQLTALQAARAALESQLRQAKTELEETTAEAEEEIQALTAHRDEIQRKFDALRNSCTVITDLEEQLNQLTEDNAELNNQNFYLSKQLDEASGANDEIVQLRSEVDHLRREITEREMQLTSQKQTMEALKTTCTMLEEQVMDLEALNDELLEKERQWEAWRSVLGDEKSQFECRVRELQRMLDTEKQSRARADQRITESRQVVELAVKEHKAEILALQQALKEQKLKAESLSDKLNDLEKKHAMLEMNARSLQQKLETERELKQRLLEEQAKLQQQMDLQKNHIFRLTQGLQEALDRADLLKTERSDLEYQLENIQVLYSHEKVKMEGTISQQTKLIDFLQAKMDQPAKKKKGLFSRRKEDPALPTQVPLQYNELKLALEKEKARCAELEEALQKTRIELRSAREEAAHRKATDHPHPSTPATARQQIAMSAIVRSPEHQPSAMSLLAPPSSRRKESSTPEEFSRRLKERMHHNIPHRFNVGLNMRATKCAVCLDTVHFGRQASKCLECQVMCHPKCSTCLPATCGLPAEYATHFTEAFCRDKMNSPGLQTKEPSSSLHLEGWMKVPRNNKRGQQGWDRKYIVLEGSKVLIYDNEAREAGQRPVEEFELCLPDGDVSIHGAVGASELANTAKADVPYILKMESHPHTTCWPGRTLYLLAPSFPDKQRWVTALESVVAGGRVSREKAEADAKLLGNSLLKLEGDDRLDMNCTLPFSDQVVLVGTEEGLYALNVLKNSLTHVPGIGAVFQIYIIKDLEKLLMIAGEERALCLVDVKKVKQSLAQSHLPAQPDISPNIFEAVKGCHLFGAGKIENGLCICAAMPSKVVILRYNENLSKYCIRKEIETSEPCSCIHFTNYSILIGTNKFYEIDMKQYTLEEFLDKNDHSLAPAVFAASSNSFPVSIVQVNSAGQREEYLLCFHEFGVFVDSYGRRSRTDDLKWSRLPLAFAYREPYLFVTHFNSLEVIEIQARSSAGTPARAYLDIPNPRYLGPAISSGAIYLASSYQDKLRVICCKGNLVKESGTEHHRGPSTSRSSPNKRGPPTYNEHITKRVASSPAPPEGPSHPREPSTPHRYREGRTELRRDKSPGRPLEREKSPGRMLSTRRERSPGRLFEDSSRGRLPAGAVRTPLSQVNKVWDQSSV
IRAK1, sequence (P51617 whole entry, looked up): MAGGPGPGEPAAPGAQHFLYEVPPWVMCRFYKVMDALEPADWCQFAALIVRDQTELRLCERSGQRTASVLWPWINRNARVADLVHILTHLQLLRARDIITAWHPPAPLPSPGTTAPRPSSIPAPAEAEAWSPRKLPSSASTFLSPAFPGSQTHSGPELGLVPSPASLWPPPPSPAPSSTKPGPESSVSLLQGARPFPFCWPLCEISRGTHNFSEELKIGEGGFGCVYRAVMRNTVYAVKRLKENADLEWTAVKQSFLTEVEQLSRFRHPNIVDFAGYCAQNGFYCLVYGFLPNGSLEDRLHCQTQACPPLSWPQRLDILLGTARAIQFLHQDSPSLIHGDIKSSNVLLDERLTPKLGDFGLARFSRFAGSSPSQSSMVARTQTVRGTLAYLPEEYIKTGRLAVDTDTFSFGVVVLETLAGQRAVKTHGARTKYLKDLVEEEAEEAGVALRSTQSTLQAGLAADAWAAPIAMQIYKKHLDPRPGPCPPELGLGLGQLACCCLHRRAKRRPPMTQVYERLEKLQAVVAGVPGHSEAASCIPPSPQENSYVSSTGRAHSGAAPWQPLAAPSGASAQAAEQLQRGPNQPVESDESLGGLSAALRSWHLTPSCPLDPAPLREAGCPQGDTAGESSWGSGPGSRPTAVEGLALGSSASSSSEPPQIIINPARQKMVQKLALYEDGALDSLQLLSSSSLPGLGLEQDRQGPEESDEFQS
UniProt O75460, sequence (O75460 whole entry, looked up): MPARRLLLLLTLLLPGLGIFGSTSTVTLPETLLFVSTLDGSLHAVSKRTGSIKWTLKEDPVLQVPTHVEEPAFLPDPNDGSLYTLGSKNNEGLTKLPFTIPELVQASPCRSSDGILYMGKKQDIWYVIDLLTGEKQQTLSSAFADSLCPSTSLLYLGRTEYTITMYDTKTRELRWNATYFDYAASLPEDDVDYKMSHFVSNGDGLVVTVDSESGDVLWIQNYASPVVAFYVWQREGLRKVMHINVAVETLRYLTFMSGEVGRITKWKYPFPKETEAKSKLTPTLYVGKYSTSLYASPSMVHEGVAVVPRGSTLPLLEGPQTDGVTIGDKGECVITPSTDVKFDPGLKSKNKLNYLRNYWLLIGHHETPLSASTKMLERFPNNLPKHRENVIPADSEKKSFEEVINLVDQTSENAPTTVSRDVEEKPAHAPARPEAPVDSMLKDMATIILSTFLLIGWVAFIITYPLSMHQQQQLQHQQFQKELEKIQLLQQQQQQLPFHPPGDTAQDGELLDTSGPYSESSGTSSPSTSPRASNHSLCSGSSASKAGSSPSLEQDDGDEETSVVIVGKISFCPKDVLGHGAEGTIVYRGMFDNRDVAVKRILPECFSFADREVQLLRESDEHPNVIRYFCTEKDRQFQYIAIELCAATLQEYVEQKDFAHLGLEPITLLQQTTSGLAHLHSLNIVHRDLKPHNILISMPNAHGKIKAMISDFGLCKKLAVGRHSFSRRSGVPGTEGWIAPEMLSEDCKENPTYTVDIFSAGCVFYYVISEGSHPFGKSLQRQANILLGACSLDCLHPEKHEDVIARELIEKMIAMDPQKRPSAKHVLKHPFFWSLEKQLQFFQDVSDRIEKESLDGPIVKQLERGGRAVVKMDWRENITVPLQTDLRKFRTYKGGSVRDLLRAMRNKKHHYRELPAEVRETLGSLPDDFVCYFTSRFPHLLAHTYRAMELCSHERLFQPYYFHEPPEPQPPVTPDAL
UniProt Q15418, sequence (Q15418 whole entry): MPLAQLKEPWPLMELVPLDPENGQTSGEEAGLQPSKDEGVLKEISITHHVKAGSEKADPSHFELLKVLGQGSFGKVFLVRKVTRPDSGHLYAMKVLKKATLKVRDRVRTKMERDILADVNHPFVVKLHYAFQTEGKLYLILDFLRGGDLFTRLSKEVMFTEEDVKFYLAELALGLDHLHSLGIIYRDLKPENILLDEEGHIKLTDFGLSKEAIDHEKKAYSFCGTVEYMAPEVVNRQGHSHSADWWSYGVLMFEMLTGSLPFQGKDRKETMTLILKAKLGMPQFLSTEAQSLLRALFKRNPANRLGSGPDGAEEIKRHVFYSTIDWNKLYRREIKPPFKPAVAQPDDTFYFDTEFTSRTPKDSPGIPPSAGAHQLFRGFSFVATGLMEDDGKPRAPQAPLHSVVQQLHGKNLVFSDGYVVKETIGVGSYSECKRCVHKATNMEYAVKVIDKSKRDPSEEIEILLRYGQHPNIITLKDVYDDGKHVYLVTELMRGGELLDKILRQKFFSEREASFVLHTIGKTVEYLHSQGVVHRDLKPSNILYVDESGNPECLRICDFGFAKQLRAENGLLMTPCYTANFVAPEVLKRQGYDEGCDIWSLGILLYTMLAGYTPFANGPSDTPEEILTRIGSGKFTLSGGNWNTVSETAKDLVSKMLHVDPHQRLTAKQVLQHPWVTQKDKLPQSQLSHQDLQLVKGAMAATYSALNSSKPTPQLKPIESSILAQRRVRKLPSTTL
UniProt Q9HCP0, sequence (Q9HCP0 whole entry, looked up): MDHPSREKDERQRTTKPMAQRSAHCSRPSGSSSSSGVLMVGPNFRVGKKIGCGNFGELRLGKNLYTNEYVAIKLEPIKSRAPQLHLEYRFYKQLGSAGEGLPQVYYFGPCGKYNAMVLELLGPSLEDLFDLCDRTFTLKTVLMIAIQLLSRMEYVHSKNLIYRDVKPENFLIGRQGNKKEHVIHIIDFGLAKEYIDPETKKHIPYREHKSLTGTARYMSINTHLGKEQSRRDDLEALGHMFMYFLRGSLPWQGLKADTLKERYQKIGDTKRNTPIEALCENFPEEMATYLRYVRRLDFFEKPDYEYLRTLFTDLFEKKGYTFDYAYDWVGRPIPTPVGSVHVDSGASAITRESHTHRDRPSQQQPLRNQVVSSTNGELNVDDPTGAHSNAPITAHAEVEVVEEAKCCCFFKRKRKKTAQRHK

CCc1cnn2c(NCc3ccc[n+]([O-])c3)cc(N3CCCC[C@H]3CCO)nc12 [dinaciclib]
< 4.52: all assays above
